Test results published in ChEMBL document CHEMBL1908105, “UDP-glucuronosyltransferases and clinical drug-drug interactions” (Pharmacol Ther, 2005).
Where “and” joins values, the source holds several entries; their conditions need not be identical. Identical values can stand only once.

Experiments:
[1] = Inhibition of 4-methylumbelliferone glucuronidation by human UGT enzymes from liver microsomes; parameters: species or system Microsome
[2] = Inhibition of AZT glucuronidation by human UGT enzymes from liver microsomes; parameters: species or system Microsome
[3] = Inhibition of morphine (3-O-glucuronidation) glucuronidation by human UGT enzymes from liver microsomes; parameters: species or system Microsome
[4] = Inhibition of morphine (6-O-glucuronidation) glucuronidation by human UGT enzymes from liver microsomes; parameters: species or system Microsome
[5] = Inhibition of mycophenolic acid (0.5 mM) glucuronidation by human kidney microsomes; parameters: species or system Microsome
[6] = Inhibition of mycophenolic acid (1 mM) glucuronidation by human UGT enzymes from liver microsomes; parameters: species or system Microsome
[7] = molecular target: T1, UDP-glucuronosyltransferase 2B7 (Homo sapiens, UniProt P16662); test: (§1) Drug glucuronidation reaction catalyzed by human recombinant UGT2B7
T1 sequence (P16662 whole entry): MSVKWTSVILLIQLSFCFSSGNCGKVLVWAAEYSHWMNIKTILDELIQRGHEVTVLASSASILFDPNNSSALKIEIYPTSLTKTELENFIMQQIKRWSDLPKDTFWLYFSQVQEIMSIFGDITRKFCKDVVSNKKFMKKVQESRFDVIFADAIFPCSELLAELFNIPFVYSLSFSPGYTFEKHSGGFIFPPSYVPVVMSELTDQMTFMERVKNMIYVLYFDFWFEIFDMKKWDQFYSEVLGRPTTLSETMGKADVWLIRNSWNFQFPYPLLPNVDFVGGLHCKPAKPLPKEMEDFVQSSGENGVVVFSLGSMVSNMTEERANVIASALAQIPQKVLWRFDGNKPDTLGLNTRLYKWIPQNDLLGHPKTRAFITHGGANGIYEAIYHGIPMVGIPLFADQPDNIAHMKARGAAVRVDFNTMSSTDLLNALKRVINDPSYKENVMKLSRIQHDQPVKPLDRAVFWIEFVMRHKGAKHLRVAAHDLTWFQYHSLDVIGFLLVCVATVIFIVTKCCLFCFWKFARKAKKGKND

UGT2B7 = molecular target: T2, UGT2B7 (Homo sapiens, UniProt P16662); test: as §1; settings: recombinant UGT2B7
T2 sequence (P16662 whole entry): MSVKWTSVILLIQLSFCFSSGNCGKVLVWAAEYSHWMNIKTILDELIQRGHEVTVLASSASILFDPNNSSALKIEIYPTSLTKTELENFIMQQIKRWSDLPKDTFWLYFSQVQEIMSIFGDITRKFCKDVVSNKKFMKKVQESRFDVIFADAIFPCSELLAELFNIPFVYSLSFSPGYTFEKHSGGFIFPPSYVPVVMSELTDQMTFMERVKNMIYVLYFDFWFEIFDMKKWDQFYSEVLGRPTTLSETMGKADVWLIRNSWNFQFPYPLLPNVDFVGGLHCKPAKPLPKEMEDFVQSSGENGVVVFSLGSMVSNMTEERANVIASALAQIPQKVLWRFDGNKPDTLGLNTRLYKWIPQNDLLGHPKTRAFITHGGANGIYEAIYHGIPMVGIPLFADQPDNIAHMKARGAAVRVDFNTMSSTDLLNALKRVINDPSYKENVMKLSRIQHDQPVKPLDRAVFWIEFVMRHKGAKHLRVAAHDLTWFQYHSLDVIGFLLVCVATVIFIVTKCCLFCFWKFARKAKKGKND

[8] = Inhibition of ciramadol glucuronidation by human UGT enzymes from liver microsomes; parameters: species or system Microsome
[9] = Inhibition of codeine glucuronidation by human UGT enzymes from liver microsomes; parameters: species or system Microsome
[10] = Inhibition of morphine glucuronidation by human UGT enzymes from liver microsomes; parameters: species or system Microsome
[11] = molecular target: T3, UDP-glucuronosyltransferase 1A3 (Homo sapiens, UniProt P35503); test: Drug glucuronidation reaction catalyzed by human recombinant UGT1A3
T3 sequence (P35503 whole entry): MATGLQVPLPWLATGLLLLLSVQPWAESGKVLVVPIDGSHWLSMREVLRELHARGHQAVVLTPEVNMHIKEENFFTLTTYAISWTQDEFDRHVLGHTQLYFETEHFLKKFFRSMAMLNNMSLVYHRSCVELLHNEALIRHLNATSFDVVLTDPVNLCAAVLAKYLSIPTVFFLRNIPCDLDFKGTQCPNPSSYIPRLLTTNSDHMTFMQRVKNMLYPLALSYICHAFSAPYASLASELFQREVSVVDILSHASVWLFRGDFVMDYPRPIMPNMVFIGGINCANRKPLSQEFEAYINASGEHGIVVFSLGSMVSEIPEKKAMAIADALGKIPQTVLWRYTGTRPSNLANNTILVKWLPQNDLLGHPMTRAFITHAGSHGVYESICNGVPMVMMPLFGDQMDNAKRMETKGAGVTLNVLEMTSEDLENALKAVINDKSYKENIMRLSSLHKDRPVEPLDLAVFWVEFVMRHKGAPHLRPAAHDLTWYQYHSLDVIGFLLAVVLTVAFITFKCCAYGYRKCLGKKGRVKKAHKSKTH

[12] = molecular target: T4, UDP-glucuronosyltransferase 1A4 (Homo sapiens, UniProt P22310); test: Drug glucuronidation reaction catalyzed by human recombinant UGT1A4
T4 sequence (P22310 whole entry): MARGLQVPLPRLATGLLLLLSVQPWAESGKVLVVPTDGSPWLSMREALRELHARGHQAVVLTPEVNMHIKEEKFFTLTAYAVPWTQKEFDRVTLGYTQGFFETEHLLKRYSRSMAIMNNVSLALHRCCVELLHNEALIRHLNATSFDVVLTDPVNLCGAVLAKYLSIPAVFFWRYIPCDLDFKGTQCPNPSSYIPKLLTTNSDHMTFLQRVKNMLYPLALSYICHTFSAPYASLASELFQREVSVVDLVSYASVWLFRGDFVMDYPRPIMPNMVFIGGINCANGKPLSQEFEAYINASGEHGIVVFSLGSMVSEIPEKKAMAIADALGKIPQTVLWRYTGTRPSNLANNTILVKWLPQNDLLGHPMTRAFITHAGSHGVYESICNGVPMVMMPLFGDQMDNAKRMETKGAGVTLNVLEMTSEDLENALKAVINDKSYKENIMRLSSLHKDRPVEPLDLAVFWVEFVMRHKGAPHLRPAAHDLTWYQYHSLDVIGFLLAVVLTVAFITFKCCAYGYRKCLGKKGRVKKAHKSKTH

[13] = substrate: CCc1c2c(nc3ccc(O)cc13)-c1cc3c(c(=O)n1C2)COC(=O)[C@]3(O)CC; test: (§2) Drug glucuronidation reaction catalyzed by human recombinant UGT1A6
[14] = substrate: CN1CC[C@]23c4c5ccc(O[C@@H]6O[C@H](C(=O)O)[C@@H](O)[C@H](O)[C@H]6O)c4O[C@H]2[C@@H](O)C=C[C@H]3[C@H]1C5; test: as §2
[15] = substrate: CCc1c2c(nc3ccc(O)cc13)-c1cc3c(c(=O)n1C2)COC(=O)[C@]3(O)CC; test: (§3) Drug glucuronidation reaction catalyzed by human recombinant UGT1A7
[16] = substrate: COc1c(C)c2c(c(O)c1C/C=C(\C)CCC(=O)O)C(=O)OC2; test: as §3

## CN1C(=O)C(O)N=C(c2ccccc2)c2cc(Cl)ccc21 (configuration not stated) [TEMAZEPAM]
[1]
  Ki: 217 µM
[2]
  Ki: 580 µM

## Cc1cc(CC(=O)O)n(C)c1C(=O)c1ccc(Cl)cc1 [ZOMEPIRAC]
[2]
  Ki: 2100 µM

## CN(C)CCCN1c2ccccc2CCc2ccc(Cl)cc21 [CLOMIPRAMINE]
[3]
  Ki: 90 µM
[4]
  Ki: 56 µM

## O=C(O)c1cccnc1Nc1cccc(C(F)(F)F)c1 [NIFLUMIC ACID]
[5]
  IC50: 8 µM
[6]
  IC50: 8 µM

## Cc1cn([C@H]2C[C@H](N=[N+]=[N-])[C@@H](CO)O2)c(=O)[nH]c1=O [ZIDOVUDINE]
[7]
  Vmax: 210 pmol/min/mg protein
UGT2B7
  Km: 770 µM

## CN/C(=N\CCSCc1nc[nH]c1C)NC#N [CIMETIDINE]
[2]
  Ki: 11000 µM

## O=C1C(CC[S+]([O-])c2ccccc2)C(=O)N(c2ccccc2)N1c1ccccc1 (configuration not stated) [SULFINPYRAZONE]
[2]
  Ki: 2100 µM

## Nc1ccc(S(=O)(=O)Nc2nccs2)cc1 [SULFATHIAZOLE]
[2]
  Ki: 24000 µM

## CN1C(=O)CN=C(c2ccccc2)c2cc(Cl)ccc21 [DIAZEPAM]
[2]
  Ki: 300 µM
[8]
  Ki: 40 µM
[9]
  Ki: 180 µM
[10]
  Ki: 120 µM

## Cc1noc(NS(=O)(=O)c2ccc(N)cc2)c1C [SULFISOXAZOLE]
[2]
  Ki: 47000 µM

## CN1CCC(=C2c3ccccc3CC(=O)c3sccc32)CC1 [KETOTIFEN]
[11]
  Vmax: 6 pmol/min/mg protein and 12 pmol/min/mg protein
[12]
  Vmax: 130 pmol/min/mg protein and 140 pmol/min/mg protein

## O=C(O)c1ccccc1Nc1cccc(C(F)(F)F)c1 [FLUFENAMIC ACID]
[5]
  IC50: 13 µM
[6]
  IC50: 19 µM

## CN(C)CCCN1c2ccccc2CCc2ccccc21 [IMIPRAMINE]
[12]
  Km: 310 µM
  Vmax: 180 pmol/min/mg protein

## C=CCN1CC[C@]23c4c5ccc(O)c4O[C@H]2C(=O)CC[C@@]3(O)[C@H]1C5 [NALOXONE]
[10]
  Ki: 630 µM

## O=C1Nc2ccc(Cl)cc2C(c2ccccc2Cl)=NC1O (configuration not stated) [LORAZEPAM]
[2]
  Ki: 160 µM
[8]
  Ki: 140 µM
[10]
  Ki: 160 µM

## CC(C(=O)O)c1cccc(Oc2ccccc2)c1 (configuration not stated) [FENOPROFEN]
[1]
  Ki: 220 µM

## COc1ccc2c(c1)c(CC(=O)O)c(C)n2C(=O)c1ccc(Cl)cc1 [INDOMETHACIN]
[2]
  Ki: 200 µM

## CCCCC1C(=O)N(c2ccccc2)N(c2ccccc2)C1=O [PHENYLBUTAZONE]
[2]
  Ki: 1400 µM
[9]
  Ki: 1700 µM

## C[C@]12CC[C@H]3[C@@H](CCC4=CC(=O)CC[C@@]43C)[C@@H]1CC[C@@H]2O [TESTOSTERONE]
[2]
  Ki: 250 µM

## COc1ccc2cc([C@H](C)C(=O)O)ccc2c1 [NAPROXEN]
[2]
  Ki: 172 µM and 1100 µM

## CNCCC=C1c2ccccc2CCc2ccccc21 [NORTRIPTYLINE]
[3]
  Ki: 33 µM
[4]
  Ki: 27 µM

## Cc1cccc(Nc2ccccc2C(=O)O)c1C [MEFENAMIC ACID]
[5]
  IC50: 49 µM
[6]
  IC50: 63 µM

## C#C[C@]1(O)CC[C@H]2[C@@H]3CCc4cc(O)ccc4[C@H]3CC[C@@]21C [ETHINYL ESTRADIOL]
[2]
  Ki: 38 µM and 150 µM

## Nc1ccc(S(=O)(=O)c2ccc(N)cc2)cc1 [DAPSONE]
[2]
  Ki: 1700 µM

## CN1C(=O)CN=C(c2ccccc2F)c2cc([N+](=O)[O-])ccc21 [FLUNITRAZEPAM]
[2]
  Ki: 190 µM

## O=C(O)c1cc(-c2ccc(F)cc2F)ccc1O [DIFLUNISAL]
[5]
  IC50: 122 µM
[6]
  IC50: 109 µM

## CCOC(=O)Nc1ccc(NCc2ccc(F)cc2)cc1N [EZOGABINE]
[12]
  Km: 322 µM

## CN(C)CCC=C1c2ccccc2CCc2ccccc21 [AMITRIPTYLINE]
[9]
  Ki: 130 µM
[3]
  Ki: 160 µM
[4]
  Ki: 80 µM

## O=C(N[C@H](CO)[C@H](O)c1ccc([N+](=O)[O-])cc1)C(Cl)Cl [CHLORAMPHENICOL]
[2]
  Ki: 250 µM
[9]
  Ki: 270 µM
[10]
  Ki: 980 µM

B1: UDP-glucuronosyltransferase 1A6 (Homo sapiens) (protein)
chain: MACLLRSFQRISAGVFFLALWGMVVGDKLLVVPQDGSHWLSMKDIVEVLSDRGHEIVVVVPEVNLLLKESKYYTRKIYPVPYDQEELKNRYQSFGNNHFAERSFLTAPQTEYRNNMIVIGLYFINCQSLLQDRDTLNFFKESKFDALFTDPALPCGVILAEYLGLPSVYLFRGFPCSLEHTFSRSPDPVSYIPRCYTKFSDHMTFSQRVANFLVNLLEPYLFYCLFSKYEELASAVLKRDVDIITLYQKVSVWLLRYDFVLEYPRPVMPNMVFIGGINCKKRKDLSQEFEAYINASGEHGIVVFSLGSMVSEIPEKKAMAIADALGKIPQTVLWRYTGTRPSNLANNTILVKWLPQNDLLGHPMTRAFITHAGSHGVYESICNGVPMVMMPLFGDQMDNAKRMETKGAGVTLNVLEMTSEDLENALKAVINDKSYKENIMRLSSLHKDRPVEPLDLAVFWVEFVMRHKGAPHLRPAAHDLTWYQYHSLDVIGFLLAVVLTVAFITFKCCAYGYRKCLGKKGRVKKAHKSKTH
[13]
  Km: 97 µM
  Vmax: 2.8e-05 µmol/min/mg
[14]
  Km: 18000 µM
  Vmax: 2.1e-05 µmol/min/mg

B2: UDP-glucuronosyltransferase 1A7 (Homo sapiens) (protein)
chain: MARAGWTGLLPLYVCLLLTCGFAKAGKLLVVPMDGSHWFTMQSVVEKLILRGHEVVVVMPEVSWQLGRSLNCTVKTYSTSYTLEDQDREFMVFADARWTAPLRSAFSLLTSSSNGIFDLFFSNCRSLFNDRKLVEYLKESCFDAVFLDPFDACGLIVAKYFSLPSVVFARGIFCHYLEEGAQCPAPLSYVPRLLLGFSDAMTFKERVWNHIMHLEEHLFCPYFFKNVLEIASEILQTPVTAYDLYSHTSIWLLRTDFVLEYPKPVMPNMIFIGGINCHQGKPVPMEFEAYINASGEHGIVVFSLGSMVSEIPEKKAMAIADALGKIPQTVLWRYTGTRPSNLANNTILVKWLPQNDLLGHPMTRAFITHAGSHGVYESICNGVPMVMMPLFGDQMDNAKRMETKGAGVTLNVLEMTSEDLENALKAVINDKSYKENIMRLSSLHKDRPVEPLDLAVFWVEFVMRHKGAPHLRPAAHDLTWYQYHSLDVIGFLLAVVLTVAFITFKCCAYGYRKCLGKKGRVKKAHKSKTH
[15]
  Km: 5 µM
  Vmax: < 1e-06 µmol/min/mg
[16]
  Km: 30 µM
  Vmax: 0.00037 µmol/min/mg
